# Experimental data: PubChem BioAssay AID1963845 (Molecular Pharmacology Branch, DTP, NCI, 2024)
# Tested on: 429239-143-T-J1-PDC complex spheroid viability
# Test: Anticancer human tumor 429239-143-T-J1-PDC patient-derived small cell lung carcinoma cell line growth inhibition [POLQ]
# Conditions: for IC50: curve of first compound; for viability, T/C: stronger effect = lower value
# Method in brief: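 Patient-derived tumour cells were co-cultured with HUVEC and mesenchymal stem cells as multicellular spheroids at 37 °C. They were treated with POLQ inhibitors (novobiocin, ART-558, RP6685) alone or combined with other agents. Top concentrations were at or near clinical Cmax (otherwise 10 microM; SN-38 at 1 microM), decreasing in half-log steps.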
# [1] = second compound 0.0316 µM, first compound 0.0316 µM
# [2] = second compound 0.0316 µM, first compound 0.1 µM
# [3] = second compound 0.0316 µM, first compound 0.316 µM
# [4] = second compound 0.0316 µM, first compound 1 µM
# [5] = second compound 0.1 µM, first compound 0.0316 µM
# [6] = second compound 0.1 µM, first compound 0.1 µM
# [7] = second compound 0.1 µM, first compound 0.316 µM
# [8] = second compound 0.1 µM, first compound 1 µM
# [9] = second compound 0.316 µM, first compound 0.0316 µM
# [10] = second compound 0.316 µM, first compound 0.1 µM
# [11] = second compound 0.316 µM, first compound 0.316 µM
# [12] = second compound 0.316 µM, first compound 1 µM
# [13] = second compound 1 µM, first compound 0.0316 µM
# [14] = second compound 1 µM, first compound 0.1 µM
# [15] = second compound 1 µM, first compound 0.316 µM
# [16] = second compound 1 µM, first compound 1 µM
# [17] = second compound 3.16 µM, first compound 0.0316 µM
# [18] = second compound 3.16 µM, first compound 0.1 µM
# [19] = second compound 3.16 µM, first compound 0.316 µM
# [20] = second compound 3.16 µM, first compound 1 µM
# [21] = second compound 10 µM, first compound 0.0316 µM
# [22] = second compound 10 µM, first compound 0.1 µM
# [23] = second compound 10 µM, first compound 0.316 µM
# [24] = second compound 10 µM, first compound 1 µM
# [25] = second compound 0.0316 µM, first compound 3.16 µM
# [26] = second compound 0.0316 µM, first compound 10 µM
# [27] = second compound 0.1 µM, first compound 3.16 µM
# [28] = second compound 0.1 µM, first compound 10 µM
# [29] = second compound 0.316 µM, first compound 3.16 µM
# [30] = second compound 0.316 µM, first compound 10 µM
# [31] = second compound 1 µM, first compound 3.16 µM
# [32] = second compound 1 µM, first compound 10 µM
# [33] = second compound 3.16 µM, first compound 3.16 µM
# [34] = second compound 3.16 µM, first compound 10 µM
# [35] = second compound 10 µM, first compound 3.16 µM
# [36] = second compound 10 µM, first compound 10 µM
# 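Also: luminescence signal used as surrogate measure of viable cells; spheroids exposed to compounds for seven days before readout.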
# 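For viability, T/C in this document: 100% = DMSO vehicle control viability as luminescence relative to vehicle.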
compound,measurement,setting,value
CCc1c2c(nc3ccc(O)cc13)-c1cc3c(c(=O)n1C2)COC(=O)[C@]3(O)CC + Nc1ccc(C#CCN(C(=O)Cc2ncc(C(F)(F)F)cc2C(F)(F)F)c2ccc(F)cc2)nn1,IC50,second compound 0.0316 µM,< 3.16 nM
same,IC50,second compound 0.1 µM,< 3.16 nM
same,IC50,second compound 0.316 µM,< 3.16 nM
same,IC50,second compound 1 µM,< 3.16 nM
same,IC50,second compound 3.16 µM,< 3.16 nM
same,IC50,second compound 10 µM,< 3.16 nM
same,"viability, T/C","second compound 0.0316 µM, first compound 0.00316 µM",12%
same,"viability, T/C","second compound 0.0316 µM, first compound 0.01 µM",8.29%
same,"viability, T/C",[1],7.72%
same,"viability, T/C",[2],6.64%
same,"viability, T/C",[3],4.44%
same,"viability, T/C",[4],1.99%
same,"viability, T/C","second compound 0.1 µM, first compound 0.00316 µM",10.2%
same,"viability, T/C","second compound 0.1 µM, first compound 0.01 µM",7.32%
same,"viability, T/C",[5],7.97%
same,"viability, T/C",[6],6.96%
same,"viability, T/C",[7],4.07%
same,"viability, T/C",[8],3.28%
same,"viability, T/C","second compound 0.316 µM, first compound 0.00316 µM",8.87%
same,"viability, T/C","second compound 0.316 µM, first compound 0.01 µM",7.47%
same,"viability, T/C",[9],6.42%
same,"viability, T/C",[10],7.02%
same,"viability, T/C",[11],6%
same,"viability, T/C",[12],3.04%
same,"viability, T/C","second compound 1 µM, first compound 0.00316 µM",8.25%
same,"viability, T/C","second compound 1 µM, first compound 0.01 µM",8.49%
same,"viability, T/C",[13],7.35%
same,"viability, T/C",[14],7.22%
same,"viability, T/C",[15],4.56%
same,"viability, T/C",[16],1.52%
same,"viability, T/C","second compound 3.16 µM, first compound 0.00316 µM",8.61%
same,"viability, T/C","second compound 3.16 µM, first compound 0.01 µM",7.3%
same,"viability, T/C",[17],8.79%
same,"viability, T/C",[18],8.33%
same,"viability, T/C",[19],4.53%
same,"viability, T/C",[20],2.41%
same,"viability, T/C","second compound 10 µM, first compound 0.00316 µM",6.48%
same,"viability, T/C","second compound 10 µM, first compound 0.01 µM",7.39%
same,"viability, T/C",[21],8.55%
same,"viability, T/C",[22],6.94%
same,"viability, T/C",[23],4.47%
same,"viability, T/C",[24],1.68%
COc1cc2cc(C(=O)CCC(=O)O)sc2cc1OC + COC1C(OC(N)=O)C(O)C(Oc2ccc3c(O)c(NC(=O)c4ccc(O)c(CC=C(C)C)c4)c(=O)oc3c2C)OC1(C)C,IC50,second compound 0.0316 µM,> 10000 nM
same,IC50,second compound 0.1 µM,> 10000 nM
same,IC50,second compound 0.316 µM,> 10000 nM
same,IC50,second compound 1 µM,> 10000 nM
same,IC50,second compound 3.16 µM,> 10000 nM
same,IC50,second compound 10 µM,> 10000 nM
same,"viability, T/C",[1],113%
same,"viability, T/C",[2],95.9%
same,"viability, T/C",[3],112%
same,"viability, T/C",[4],105%
same,"viability, T/C",[25],92.1%
same,"viability, T/C",[26],92.4%
same,"viability, T/C",[5],116%
same,"viability, T/C",[6],104%
same,"viability, T/C",[7],93.7%
same,"viability, T/C",[8],100%
same,"viability, T/C",[27],91.2%
same,"viability, T/C",[28],92.6%
same,"viability, T/C",[9],103%
same,"viability, T/C",[10],99.3%
same,"viability, T/C",[11],92.6%
same,"viability, T/C",[12],107%
same,"viability, T/C",[29],95.1%
same,"viability, T/C",[30],90.2%
same,"viability, T/C",[13],96.1%
same,"viability, T/C",[14],91.1%
same,"viability, T/C",[15],108%
same,"viability, T/C",[16],90.9%
same,"viability, T/C",[31],90.6%
same,"viability, T/C",[32],102%
same,"viability, T/C",[17],94.7%
same,"viability, T/C",[18],112%
same,"viability, T/C",[19],103%
same,"viability, T/C",[20],89.4%
same,"viability, T/C",[33],96%
same,"viability, T/C",[34],101%
same,"viability, T/C",[21],95.9%
same,"viability, T/C",[22],91.7%
same,"viability, T/C",[23],119%
same,"viability, T/C",[24],96.6%
same,"viability, T/C",[35],94.3%
same,"viability, T/C",[36],95.7%
CNCc1ccc(-c2[nH]c3cc(F)cc4c3c2CCNC4=O)cc1 + Cc1cccc(N(C)C(=O)C2C(O)CCN2c2nc(C)cc(C(F)(F)F)c2C#N)c1,IC50,second compound 0.0316 µM,3090 nM
same,IC50,second compound 0.1 µM,2600 nM
same,IC50,second compound 0.316 µM,2210 nM
same,IC50,second compound 1 µM,2220 nM
same,IC50,second compound 3.16 µM,2450 nM
same,IC50,second compound 10 µM,3240 nM
same,"viability, T/C",[1],113%
same,"viability, T/C",[2],83.8%
same,"viability, T/C",[3],85.1%
same,"viability, T/C",[4],75%
same,"viability, T/C",[25],51%
same,"viability, T/C",[26],21.1%
same,"viability, T/C",[5],90.9%
same,"viability, T/C",[6],92.7%
same,"viability, T/C",[7],79.4%
same,"viability, T/C",[8],66.2%
same,"viability, T/C",[27],47.5%
same,"viability, T/C",[28],19.7%
same,"viability, T/C",[9],97.8%
same,"viability, T/C",[10],94.7%
same,"viability, T/C",[11],75.8%
same,"viability, T/C",[12],70.7%
same,"viability, T/C",[29],40%
same,"viability, T/C",[30],22.7%
same,"viability, T/C",[13],86.7%
same,"viability, T/C",[14],82.3%
same,"viability, T/C",[15],72.3%
same,"viability, T/C",[16],66.2%
same,"viability, T/C",[31],42.4%
same,"viability, T/C",[32],24.4%
same,"viability, T/C",[17],91.3%
same,"viability, T/C",[18],84.9%
same,"viability, T/C",[19],95.5%
same,"viability, T/C",[20],62.9%
same,"viability, T/C",[33],47.8%
same,"viability, T/C",[34],22%
same,"viability, T/C",[21],80.3%
same,"viability, T/C",[22],91.4%
same,"viability, T/C",[23],83.8%
same,"viability, T/C",[24],61.8%
same,"viability, T/C",[35],54.2%
same,"viability, T/C",[36],23%
